Source: patent US8022206B2 (OSI Pharmaceuticals, LLC, priority 2008, dated 2011)

Columns and labels:
RON (human) = RON (human) (Homo sapiens, UniProt Q04912); experiment: RON (human) AlphaScreen kinase assay, Km of ATP; format: biochemical; details: AlphaScreen, Km of ATP; read-out: RON biochemical IC50
Method in brief: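 Reaction was started with enzyme and run 30 min at RT. PT66 donor/acceptor beads in an EDTA-containing Tris pH 7.5 buffer were then added, and the signal was read after 1 h.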

MET (human) = MET (human) (Homo sapiens, UniProt P08581); experiment: MET (human) AlphaScreen kinase assay, Km of ATP; format: biochemical; details: AlphaScreen, Km of ATP; read-out: Met biochemical IC50
Method in brief: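 Human MET at lot-optimised concentration in 50 mM Tris pH 7.4 buffer with 1 mM DTT, compound at 1% DMSO final; enzyme starts the reaction, 60 min at RT.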

MET (human), sequence (P08581 25-1390): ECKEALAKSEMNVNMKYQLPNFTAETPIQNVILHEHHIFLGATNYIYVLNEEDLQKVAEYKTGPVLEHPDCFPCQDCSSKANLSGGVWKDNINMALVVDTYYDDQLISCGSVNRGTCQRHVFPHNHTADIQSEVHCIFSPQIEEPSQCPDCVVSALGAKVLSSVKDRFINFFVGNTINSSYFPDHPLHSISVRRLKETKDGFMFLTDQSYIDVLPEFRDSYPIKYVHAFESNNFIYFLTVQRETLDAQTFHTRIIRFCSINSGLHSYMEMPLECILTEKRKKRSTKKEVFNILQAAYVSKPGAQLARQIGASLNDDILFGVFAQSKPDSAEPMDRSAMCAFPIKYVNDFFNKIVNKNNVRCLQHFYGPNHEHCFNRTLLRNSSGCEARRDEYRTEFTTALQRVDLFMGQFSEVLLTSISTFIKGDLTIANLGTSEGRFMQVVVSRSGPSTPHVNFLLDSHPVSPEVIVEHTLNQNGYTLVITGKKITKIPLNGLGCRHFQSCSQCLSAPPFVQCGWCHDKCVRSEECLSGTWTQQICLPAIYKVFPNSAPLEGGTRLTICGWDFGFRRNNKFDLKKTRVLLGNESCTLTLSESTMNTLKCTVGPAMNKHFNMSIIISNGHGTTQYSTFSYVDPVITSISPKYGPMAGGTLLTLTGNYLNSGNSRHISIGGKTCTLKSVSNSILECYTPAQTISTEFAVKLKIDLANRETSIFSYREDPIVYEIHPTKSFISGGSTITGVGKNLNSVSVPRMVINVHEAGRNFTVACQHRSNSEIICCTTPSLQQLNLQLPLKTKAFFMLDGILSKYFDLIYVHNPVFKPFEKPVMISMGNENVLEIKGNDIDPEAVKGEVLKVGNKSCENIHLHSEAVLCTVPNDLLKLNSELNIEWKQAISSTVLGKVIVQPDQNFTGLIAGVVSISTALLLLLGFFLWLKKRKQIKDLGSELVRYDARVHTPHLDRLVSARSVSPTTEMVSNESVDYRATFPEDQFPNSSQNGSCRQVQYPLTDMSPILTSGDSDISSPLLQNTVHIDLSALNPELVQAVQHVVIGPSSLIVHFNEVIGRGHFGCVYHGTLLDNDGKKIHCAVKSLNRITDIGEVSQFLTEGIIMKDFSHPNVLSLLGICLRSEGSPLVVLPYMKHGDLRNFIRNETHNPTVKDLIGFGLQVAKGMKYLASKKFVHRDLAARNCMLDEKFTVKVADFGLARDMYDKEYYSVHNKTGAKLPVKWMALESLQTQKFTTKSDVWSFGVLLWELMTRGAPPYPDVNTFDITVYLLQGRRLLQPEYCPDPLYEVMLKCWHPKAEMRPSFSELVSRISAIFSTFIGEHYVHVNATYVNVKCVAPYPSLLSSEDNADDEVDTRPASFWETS
RON (human), sequence (Q04912 25-1400): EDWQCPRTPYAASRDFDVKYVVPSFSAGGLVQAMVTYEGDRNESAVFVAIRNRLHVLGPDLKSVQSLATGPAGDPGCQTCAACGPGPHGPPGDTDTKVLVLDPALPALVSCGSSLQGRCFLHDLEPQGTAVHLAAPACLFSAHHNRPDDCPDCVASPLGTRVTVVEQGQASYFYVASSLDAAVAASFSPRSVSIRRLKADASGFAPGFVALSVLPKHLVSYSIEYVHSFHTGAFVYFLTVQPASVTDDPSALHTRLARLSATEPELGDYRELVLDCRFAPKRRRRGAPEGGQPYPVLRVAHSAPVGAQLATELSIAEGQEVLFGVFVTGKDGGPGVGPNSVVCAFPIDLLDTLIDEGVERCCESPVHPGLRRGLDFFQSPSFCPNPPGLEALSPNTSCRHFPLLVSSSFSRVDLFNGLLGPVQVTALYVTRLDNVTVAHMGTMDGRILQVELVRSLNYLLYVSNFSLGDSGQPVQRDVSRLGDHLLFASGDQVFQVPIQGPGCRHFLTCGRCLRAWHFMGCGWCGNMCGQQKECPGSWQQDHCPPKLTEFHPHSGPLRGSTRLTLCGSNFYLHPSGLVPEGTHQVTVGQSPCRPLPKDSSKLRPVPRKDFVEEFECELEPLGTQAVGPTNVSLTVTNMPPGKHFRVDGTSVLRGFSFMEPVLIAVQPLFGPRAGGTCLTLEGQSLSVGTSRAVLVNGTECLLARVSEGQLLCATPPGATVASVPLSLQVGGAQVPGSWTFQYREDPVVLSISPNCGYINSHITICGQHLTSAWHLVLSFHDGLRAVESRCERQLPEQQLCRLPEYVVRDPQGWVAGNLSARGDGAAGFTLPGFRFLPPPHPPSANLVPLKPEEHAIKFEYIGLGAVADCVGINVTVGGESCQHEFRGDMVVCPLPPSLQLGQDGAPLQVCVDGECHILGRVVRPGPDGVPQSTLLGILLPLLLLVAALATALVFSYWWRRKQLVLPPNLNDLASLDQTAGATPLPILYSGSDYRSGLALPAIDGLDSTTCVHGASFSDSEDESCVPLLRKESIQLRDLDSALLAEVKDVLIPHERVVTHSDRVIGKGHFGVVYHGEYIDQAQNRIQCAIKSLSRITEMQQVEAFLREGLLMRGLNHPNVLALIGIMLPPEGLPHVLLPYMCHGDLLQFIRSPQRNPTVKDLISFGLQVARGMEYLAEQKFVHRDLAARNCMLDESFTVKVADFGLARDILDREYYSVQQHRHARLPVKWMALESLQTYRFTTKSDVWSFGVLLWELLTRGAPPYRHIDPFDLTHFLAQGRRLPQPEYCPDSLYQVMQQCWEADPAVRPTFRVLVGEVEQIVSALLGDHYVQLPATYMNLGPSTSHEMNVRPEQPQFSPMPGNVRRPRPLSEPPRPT

| Compound | IC50 (RON (human)) [nM] | IC50 (MET (human)) [nM] |
| --- | --- | --- |
| C[C@@H](Oc1c(N)ncc2c(C3=CCN(C(=O)C(F)(F)F)CC3)coc12)c1c(Cl)ccc(F)c1Cl [Example 56, 1-(4-{6-Amino-7-[(R)-1-(2,6-dichloro-3-fluorophenyl)-ethoxy]-furo[3,2-c]pyridin-3-yl}-3,6-dihydro-2H-pyridin-1-yl)-2,2,2-trifluoroethanone] | 500 to 5000 | 500 to 5000 |
| C[C@@H](Oc1c(N)ncc2c(-c3ccc(NCCN4CCOCC4)nc3)coc12)c1c(Cl)ccc(F)c1Cl [Example 104, 7-[(R)-1-(2,6-Dichloro-3-fluorophenyl)ethoxy]-3-[6-(2-morpholin-4-yl-ethylamino)pyridin-3-yl]furo[3,2-c]pyridin-6-ylamine] | 500 to 5000 | < 500 |
| C[C@@H](Oc1c(N)ncc2c(C3=CCN(C(=O)c4cnc[nH]4)CC3)coc12)c1c(Cl)ccc(F)c1Cl [Example 233, (4-{6-Amino-7-[(R)-1-(2,6-dichloro-3-fluorophenyl)ethoxy]-furo[3,2-c]pyridin-3-yl}-3,6-dihydro-2H-pyridin-1-yl)-(3H-imidazol-4-yl)-methanone] | 500 to 5000 | 500 to 5000 |
| CCCCS(=O)(=O)Nc1cccc(-c2coc3c(O[C@H](C)c4c(Cl)ccc(F)c4Cl)c(N)ncc23)c1 [Example 246, Butane-1-sulfonic acid (3-{6-amino-7-[(R)-1-(2,6-dichloro-3-fluorophenyl)ethoxy]-furo[3,2-c]pyridin-3-yl}phenyl)amide] | 5000 to 20000 | 500 to 5000 |
| CNC(=O)c1ccc(C(C)Oc2c(N)ncc3c(-c4cnn(C5CCNCC5)c4)coc23)cc1 (centres unmarked) [Example 421, 4-{1-[6-Amino-3-(1-piperidin-4-yl-1H-pyrazol-4-yl)furo[3,2-c]pyridin-7-yloxy]ethyl}-N-methylbenzamide] | 5000 to 20000 | 500 to 5000 |
| CC(Oc1c(N)ncc2c(-c3cnn(C4CCNCC4)c3)coc12)c1c(Cl)cccc1Br (centres unmarked) [Example 361, 7-[1-(2-Bromo-6-chlorophenyl)ethoxy]-3-(1-piperidin-4-yl-1H-pyrazol-4-yl)furo[3,2-c]pyridin-6-ylamine] | < 500 | < 500 |
| CCN1CC2CC1CN2C(=O)N1CC=C(c2coc3c(O[C@H](C)c4c(Cl)ccc(F)c4Cl)c(N)ncc23)CC1 (stereo partly drawn) [Example 222, (4-{6-Amino-7-[(R)-1-(2,6-dichloro-3-fluorophenyl)ethoxy]-furo[3,2-c]pyridin-3-yl}-3,6-dihydro-2H-pyridin-1-yl)-(5-ethyl-2,5-diazabicyclo[2.2.1]hept-2-yl)-methanone] | < 500 | < 500 |
| C[C@@H](Oc1c(N)ncc2c(C3=CCN(CCN)CC3)coc12)c1c(Cl)ccc(F)c1Cl [Example 43, 3-[1-(2-Aminoethyl)-1,2,3,6-tetrahydropyridin-4-yl]-7-[(R)-1-(2,6-dichloro-3-fluorophenyl)ethoxy]-furo[3,2-c]pyridin-6-ylamine] | < 500 | < 500 |
| C[C@@H](Oc1c(N)ncc2c(-c3cnn(C4CCNCC4)c3)coc12)c1nnc2ccc(-c3ccccc3)nn12 [Example 476, 7-[(1R)-1-(6-phenyl[1,2,4]triazolo[4,3-b]pyridazin-3-yl)ethoxy]-3-[1-(piperidin-4-yl)-1H-pyrazol-4-yl]furo[3,2-c]pyridin-6-amine] | 500 to 5000 | < 500 |
| CC(Cc1c(F)cccc1C(F)(F)F)Oc1c(N)ncc2c(-c3cnn(C4CCNCC4)c3)coc12 (centres unmarked) [Example 441, 7-[2-(2-Fluoro-6-trifluoromethylphenyl)-1-methylethoxy]-3-(1-piperidin-4-yl-1H-pyrazol-4-yl)furo[3,2-c]pyridin-6-ylamine] | 500 to 5000 | < 500 |
| CC(Cc1cccc(Cl)c1)Oc1c(N)ncc2c(-c3cnn(C4CCNCC4)c3)coc12 (centres unmarked) [Example 427, 7-[2-(3-Chlorophenyl)-1-methylethoxy]-3-(1-piperidin-4-yl-1H-pyrazol-4-yl)furo[3,2-c]pyridin-6-ylamine] | < 500 | < 500 |
| CC(Oc1c(N)ncc2c(-c3cnn(C4CCNCC4)c3)coc12)c1ccc(Cl)cc1 (centres unmarked) [Example 377, 7-[1-(4-Chlorophenyl)ethoxy]-3-(1-piperidin-4-yl-1H-pyrazol-4-yl)furo[3,2-c]pyridin-6-ylamine] | 500 to 5000 | 500 to 5000 |
| Cc1ccc(C(C)Oc2c(N)ncc3c(-c4cnn(C5CCNCC5)c4)coc23)cc1 (centres unmarked) [Example 344, 3-(1-Piperidin-4-yl-1H-pyrazol-4-yl)-7-(1-p-tolylethoxy)furo[3,2-c]pyridin-6-ylamine] | 500 to 5000 | 500 to 5000 |
| C[C@@H](Oc1c(N)ncc2c(-c3ccc(C(=O)N4CCN(CCOCCO)CC4)cc3)coc12)c1c(Cl)ccc(F)c1Cl [Example 301, (4-{6-Amino-7-[(R)-1-(2,6-dichloro-3-fluoro-phenyl)ethoxy]furo[3,2-c]pyridin-3-yl}phenyl)-{4-[2-(2-hydroxyethoxy)ethyl]piperazin-1-yl}methanone] | 500 to 5000 | 500 to 5000 |
| C[C@@H](Oc1c(N)ncc2c(-c3ccc(C(=O)N4CCC(O)CC4)cc3)coc12)c1c(Cl)ccc(F)c1Cl [Example 296, (4-{6-Amino-7-[(R)-1-(2,6-dichloro-3-fluorophenyl)ethoxy]furo[3,2-c]pyridin-3-yl}phenyl)-(4-hydroxypiperidin-1-yl)methanone] | 500 to 5000 | 500 to 5000 |
| C[C@@H]1CN(C(=O)N2CC=C(c3coc4c(O[C@H](C)c5c(Cl)ccc(F)c5Cl)c(N)ncc34)CC2)C[C@H](C)N1 (relative stereo) [Example 224, (4-{6-Amino-7-[(R)-1-(2,6-dichloro-3-fluorophenyl)ethoxy]-furo[3,2-c]pyridin-3-yl}-3,6-dihydro-2H-pyridin-1-yl)-((3R*,5S*)-3,5-dimethylpiperazin-1-yl)methanone] | < 500 | < 500 |
| CC(Cc1c(F)cccc1F)Oc1c(N)ncc2c(-c3cnn(C4CCNCC4)c3)coc12 (centres unmarked) [Example 418, 7-[2-(2,6-Difluorophenyl)-1-methylethoxy]-3-(1-piperidin-4-yl-1H-pyrazol-4-yl)furo[3,2-c]pyridin-6-ylamine] | 500 to 5000 | < 500 |
| CC(Oc1c(N)ncc2c(-c3cnn(C4CCNCC4)c3)coc12)c1ccccc1Br (centres unmarked) [Example 400, 7-[1-(2-Bromophenyl)ethoxy]-3-(1-piperidin-4-yl-1H-pyrazol-4-yl)furo[3,2-c]pyridin-6-ylamine] | 500 to 5000 | < 500 |
| CC(C)OC(=O)N1CC=C(c2coc3c(O[C@H](C)c4c(Cl)ccc(F)c4Cl)c(N)ncc23)CC1 [Example 53, 4-{6-Amino-7-[(R)-1-(2,6-dichloro-3-fluorophenyl)-ethoxy]-furo[3,2-c]pyridin-3-yl}-3,6-dihydro-2H-pyridine-1-carboxylic acid isopropyl ester] | 500 to 5000 | 500 to 5000 |
| COc1cc(Cl)cc(Cl)c1C(C)Oc1c(N)ncc2c(-c3cnn(C4CCNCC4)c3)coc12 (centres unmarked) [Example 360, 7-[1-(2,4-Dichloro-6-methoxyphenyl)ethoxy]-3-(1-piperidin-4-yl-1H-pyrazol-4-yl)furo[3,2-c]pyridin-6-ylamine] | 500 to 5000 | < 500 |
| CC(Oc1c(N)ncc2c(-c3cnn(C4CCNCC4)c3)coc12)c1ncc(C(F)(F)F)cc1Cl (centres unmarked) [Example 413, 7-[1-(3-Chloro-5-trifluoromethylpyridin-2-yl)ethoxy]-3-(1-piperidin-4-yl-1H-pyrazol-4-yl)furo[3,2-c]pyridin-6-ylamine] | 500 to 5000 | 500 to 5000 |
| C[C@@H](Oc1c(N)ncc2c(-c3ccnc4ccccc34)coc12)c1c(Cl)ccc(F)c1Cl [Example 92, 7-[(R)-1-(2,6-Dichloro-3-fluorophenyl)ethoxy]-3-quinolin-4-ylfuro[3,2-c]pyridin-6-ylamine] | 5000 to 20000 | 500 to 5000 |
| CC(Oc1c(N)ncc2c(-c3cnn(C4CCNCC4)c3)coc12)c1ccc(Cl)c(F)c1 (centres unmarked) [Example 381, 7-[1-(4-Chloro-3-fluorophenyl)ethoxy]-3-(1-piperidin-4-yl-1H-pyrazol-4-yl)furo[3,2-c]pyridin-6-ylamine] | < 500 | < 500 |
| COc1ccc(CC(C)Oc2c(N)ncc3c(-c4cnn(C5CCNCC5)c4)coc23)cc1 (centres unmarked) [Example 431, 7-[2-(4-Methoxyphenyl)-1-methylethoxy]-3-(1-piperidin-4-yl-1H-pyrazol-4-yl)furo[3,2-c]pyridin-6-ylamine] | 500 to 5000 | 500 to 5000 |
| C[C@@H](Oc1c(N)ncc2c(C3=CCCC(N)C3)coc12)c1c(Cl)ccc(F)c1Cl (stereo partly drawn) [Example 145, 3-(5-Aminocyclohex-1-enyl)-7-[(R)-1-(2,6-dichloro-3-fluoro-phenyl)ethoxy]furo[3,2-c]pyridin-6-ylamine] | < 500 | 500 to 5000 |
| CC(Oc1c(N)ncc2c(-c3cnn(C4CCNCC4)c3)coc12)c1cccc(-c2cnn(C)c2)c1 (centres unmarked) [Example 448, 7-{1-[3-(1-Methyl-1H-pyrazol-4-yl)phenyl]ethoxy}-3-(1-piperidin-4-yl-1H-pyrazol-4-yl)furo[3,2-c]pyridin-6-ylamine] | 500 to 5000 | 500 to 5000 |
| C[C@@H](Oc1c(N)ncc2c(-c3cccc(C(=O)NCCN(C)C)c3)coc12)c1c(Cl)ccc(F)c1Cl [Example 74, 3-{6-Amino-7-[(R)-1-(2,6-dichloro-3-fluorophenyl)ethoxy]-furo[3,2-c]pyridin-3-yl}-N-(2-dimethylaminoethyl)benzamide] | < 500 | < 500 |
| C#CCC(Oc1c(N)ncc2c(C3=CCN(C(N)=O)CC3)coc12)c1c(Cl)ccc(F)c1Cl (centres unmarked) [Example 459, 4-(6-Amino-7-{[1-(2,6-dichloro-3-fluorophenyl)but-3-yn-1-yl]oxy}furo[3,2-c]pyridin-3-yl)-3,6-dihydropyridine-1(2H)-carboxamide] | 500 to 5000 | < 500 |
